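These data come from cells grown in 96-well plates and exposed to compound for 48 hours at five concentrations. Definition used: TGI = concentration required for complete inhibition of growth.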
Columns and labels:
Experiment in all cases: NCI-60 cell line screen, 48 h
[1] = test system: 786-0 renal
[2] = test system: A498 renal
[3] = test system: A549 NSCLC
[4] = test system: BT-549 breast
[5] = test system: CAKI-1 renal
[6] = test system: CCRF-CEM leukemia
[7] = test system: COLO 205 colon
[8] = test system: DU-145 prostate
[9] = test system: EKVX NSCLC
[10] = test system: HCC-2998 colon
[11] = test system: HCT-116 colon
[12] = test system: HCT-15 colon
[13] = test system: HL-60(TB) leukemia
[14] = test system: HOP-62 NSCLC
[15] = test system: HOP-92 NSCLC
[16] = test system: IGROV1 ovarian
[17] = test system: K-562 leukemia
[18] = test system: KM12 colon
[19] = test system: LOX IMVI melanoma
[20] = test system: M14 melanoma
[21] = test system: MALME-3M melanoma
[22] = test system: MCF7 breast
[23] = test system: MDA-MB-231 breast
[24] = test system: MDA-MB-435
[25] = test system: MDA-N
[26] = test system: MOLT-4 leukemia
[27] = test system: NCI-H226 lung
[28] = test system: NCI-H23 lung
[29] = test system: NCI-H522 lung
[30] = test system: NCI/ADR-RES ovarian
[31] = test system: OVCAR-3 ovarian
[32] = test system: OVCAR-5 ovarian
[33] = test system: OVCAR-8 ovarian
[34] = test system: PC-3 prostate
[35] = test system: RPMI-8226 leukemia
[36] = test system: SF-268 CNS
[37] = test system: SF-295 CNS
[38] = test system: SF-539 CNS
[39] = test system: SK-MEL-2 melanoma
[40] = test system: SK-MEL-5 melanoma
[41] = test system: SK-OV-3 ovarian
[42] = test system: SN12C renal
[43] = test system: SR leukemia
[44] = test system: SW-620 colon
[45] = test system: T-47D breast
[46] = test system: TK-10 renal
[47] = test system: U251 CNS
[48] = test system: UACC-257 melanoma
[49] = test system: UACC-62 melanoma
[50] = test system: UO-31 renal
[51] = test system: ACHN renal
[52] = test system: HS 578T breast
[53] = test system: HT29 colon
[54] = test system: OVCAR-4 ovarian
[55] = test system: RXF 393 renal

## O=C(CN1CCCC1)Nc1ccc2c(c1)C1Oc3ccccc3CC1CO2 (centres undefined)
[1]
  TGI: 57.1 µM
[2]
  TGI: > 100 µM
[3]
  TGI: > 100 µM
[4]
  TGI: 75.4 µM
[5]
  TGI: > 100 µM
[6]
  TGI: > 100 µM
[7]
  TGI: 27.8 µM
[8]
  TGI: > 100 µM
[9]
  TGI: > 100 µM
[10]
  TGI: 34.9 µM
[11]
  TGI: > 100 µM
[12]
  TGI: 47.2 µM
[13]
  TGI: > 100 µM
[14]
  TGI: 45.5 µM
[15]
  TGI: > 100 µM
[16]
  TGI: > 100 µM
[17]
  TGI: > 100 µM
[18]
  TGI: > 100 µM
[19]
  TGI: 44.5 µM
[20]
  TGI: 36.4 µM
[21]
  TGI: 33.4 µM
[22]
  TGI: 32.4 µM
[23]
  TGI: 75.7 µM
[24]
  TGI: 55.4 µM
[25]
  TGI: 88.2 µM
[26]
  TGI: > 100 µM
[27]
  TGI: > 100 µM
[28]
  TGI: > 100 µM
[29]
  TGI: 96.5 µM
[30]
  TGI: > 100 µM
[31]
  TGI: > 100 µM
[32]
  TGI: 93.4 µM
[33]
  TGI: > 100 µM
[34]
  TGI: 68.3 µM
[35]
  TGI: 78.9 µM
[36]
  TGI: > 100 µM
[37]
  TGI: 39.7 µM
[38]
  TGI: 39.5 µM
[39]
  TGI: 50 µM
[40]
  TGI: 28.2 µM
[41]
  TGI: > 100 µM
[42]
  TGI: > 100 µM
[43]
  TGI: 89.6 µM
[44]
  TGI: 35.6 µM
[45]
  TGI: > 100 µM
[46]
  TGI: > 100 µM
[47]
  TGI: 56.5 µM
[48]
  TGI: 44.3 µM
[49]
  TGI: 33 µM
[50]
  TGI: 84.4 µM

## COC(=O)c1c2c(cc3c1CC1(Cc4cc5c(cc4C1)CCCC5)C3)CCCC2
[1]
  TGI: > 100 µM
[2]
  TGI: > 100 µM
[3]
  TGI: > 100 µM
[51]
  TGI: > 100 µM
[6]
  TGI: > 100 µM
[7]
  TGI: > 100 µM
[9]
  TGI: > 100 µM
[10]
  TGI: > 100 µM
[11]
  TGI: 28.6 µM
[12]
  TGI: > 100 µM
[13]
  TGI: > 100 µM
[14]
  TGI: > 100 µM
[15]
  TGI: > 100 µM
[52]
  TGI: > 100 µM
[53]
  TGI: > 100 µM
[16]
  TGI: > 100 µM
[17]
  TGI: > 100 µM
[18]
  TGI: > 100 µM
[19]
  TGI: > 100 µM
[20]
  TGI: > 100 µM
[21]
  TGI: > 100 µM
[22]
  TGI: > 100 µM
[23]
  TGI: > 100 µM
[24]
  TGI: > 100 µM
[25]
  TGI: > 100 µM
[26]
  TGI: > 100 µM
[28]
  TGI: > 100 µM
[29]
  TGI: > 100 µM
[30]
  TGI: > 100 µM
[31]
  TGI: > 100 µM
[54]
  TGI: > 100 µM
[32]
  TGI: > 100 µM
[33]
  TGI: > 100 µM
[34]
  TGI: > 100 µM
[35]
  TGI: > 100 µM
[55]
  TGI: 67.3 µM
[37]
  TGI: > 100 µM
[38]
  TGI: > 100 µM
[39]
  TGI: > 100 µM
[40]
  TGI: > 100 µM
[41]
  TGI: > 100 µM
[42]
  TGI: > 100 µM
[43]
  TGI: > 100 µM
[45]
  TGI: > 100 µM
[46]
  TGI: > 100 µM
[47]
  TGI: > 100 µM
[48]
  TGI: > 100 µM
[49]
  TGI: > 100 µM
[50]
  TGI: > 100 µM
